Patent publication US7569221B2, “Compositions and methods for identifying agents that alter expression of survivin” (Health Research, Inc., priority 2006, dated 2009)

Key:
human survivin promoter [1] = assay: in vivo luciferase imaging of SPlucTg mice during liver injury and regeneration after CCl4; design: species or system mouse
Method: FIG. 20 is a photographic representation (obtained using the XENOGEN IVIS® in vivo Imaging System) of dose-dependent transient turn-on of survivin promoter activity during SPlucTg mouse liver injury and regeneration using carbon tetrachloride (CCl4): A 10% of CCl4 solution formulated in corn oil was prepared. The following dose was injected intraperitoneally on Day 0: 50 μl/25 g (panel A), 100 μl/25 g (panel B), 200 μl/25 g (panel C) and 300 μl/25 g (panel D). The in vivo imaging was monitored on Day 1 (24 h), Day 2 (48 h), Day 3 (72 h), Day 4 (96 h) and Day 6 (144 h) after administration of CCl4 (arrows indicate luciferase expression). […]
(§1) Using a survivin-specific monoclonal antibody termed 12C4, we have recently shown that testis is the only human organ that highly expresses survivin (60-70% of spermatogonia) (19). Consistent with this observation, luciferase activity in SPlucTg mice was detected only in the testis of male mice but not in female mice (founder, F1 and F2). […]
Based on this observation, we tested whether we could observe luciferase activity during mouse liver regeneration after injury. […] Importantly, the mouse liver injury and luciferase activity monitored by in vivo imaging is CCl4 dose-dependent, which provides a novel basis for testing compound-induced tissue injury/toxicity.

cancer cells = assay: cell death of treated cancer cells; assay type: cell-based
human survivin promoter [2] = assay: luciferase activity assay in cancer cell clones stably transfected with pNeoHScyc4.08-luc; assay type: cell-based
Method: Methods for transfection, G418 selection, single clone isolation and amplification: Cells were first tested for G418 resistance with a series of G418 concentrations. For transfection, cells were seeded in a 6-well cell culture plate, one day before transfection, to a cell concentration in which cell would grow into 40-70% confluence on the second day for transfection. Cells were transfected with the Sal I-linearized pNeoHScyc4.08-luc or pNeoHS4.04-luc using LIPOFECTAMINE™ 2000 (INVITROGEN). Briefly, 1-2 μg (dependent on cell transfection efficiency) of the linearized plasmid DNA in 100 μl serum-free DMEM were mixed with 1.5-3 μl Lipofectamine™ 2000 in 100 μl serum-free DMEM in a 1.5-ml tube for each well of 6-well plates. After incubation at room temperature for 20-25 minutes, the DNA/Lipofectamine™ 2000 mixture was added to each well containing 500 μl serum-free DMEM medium in the 6-well plate. […]
Methods for measuring luciferase activity and isolation of the correct cell clones: For luciferase assays, the Luciferase Reporter Assay System (PROMEGA) was used. […] Luciferase activity for each cell clones was determined every 4-5 sub-culture/passing. […]
Therefore, we used Hedamycin as a positive control to test our genetically modified cancer cell models. […] After cells were treated with 10 nM hedamycin for 16-24 hours, cells were lysed and luciferase activity was measured as described above. […]

survivin [3] = assay: survivin expression and survivin promoter activity in cancer cells (earlier work); assay type: cell-based, human; conditions: binds to the survivin promoter
survivin [4] = conditions: cancer cells; reference 15; cited from earlier work
human survivin promoter [5] = assay: in vivo luciferase imaging of castrated SPlucTg male mice after androgen treatment; design: species or system mouse; conditions: testosterone pills imbedded 14 days after castration, seen on Day 11 and Day 14 post pill
From the text: FIG. 19 is a photographic representation (obtained using the XENOGEN IVIS® in vivo Imaging System) of transient turn-on of survivin promoter activity by imbedding testosterone pills in castrated SPlucTg mice: Testosterone pills were imbedded in the back of the neck of SPlucTg mice (an example shown here is the F1 5556m derived from 5196m founder) 14 days after castration (prostate tissue shrinking to the minimal size by apoptosis in the 14 days). After testosterone pill implantation, luciferase activity was monitored using in vivo imaging.
Generation of SPlucTg mice: The targeting construct, pHScyc4.08-luc, was digested with Sal I and Sac I to isolate the 8.5 kb transgene cassette (HScyc4.08-luc) from the bacterial plasmid backbone (see FIG. 2). […] Cesium chloride-purified HScyc4.08-luc DNA was microinjected into the pronuclei of day-0.5 embryos of C57BL/6 mice. Injected embryos were implanted into the oviducts of pseudo-pregnant female Swiss Webster mice. […]
as §1

ClC(Cl)(Cl)Cl [CCl4, carbon tetrachloride]
dose dependence of mouse liver injury and luciferase activity (human survivin promoter [1]; intraperitoneal CCl4, 50, 100, 200, 300 μl/25 g): dose-dependent
luciferase activity during liver regeneration by in vivo imaging (human survivin promoter [1]; intraperitoneal injection of 10% CCl4 in corn oil, 50-300 μl/25 g, Day 1-6): strong luciferase activity

CCOc1ccc(-c2nc3ccc(-c4nc5ccc(N6CCN(C)CC6)cc5[nH]4)cc3[nH]2)cc1 [Hoechst33342]
cell death (cancer cells; 500 nM for 16-24 hours): does not result in significant cell death
survivin promoter/luciferase activity (human survivin promoter [2]; 500 nM Hoechst33342 for 16-24 hours, A549, 2008, HCT116, PC-3 clones with pNeoHScyc4.08-luc (FIGS. 9-12)): upregulates survivin promoter/luciferase activity
survivin promoter activity and endogenous survivin gene expression (survivin [3]): upregulates the survivin promoter activity and endogenous survivin gene expression

Cc1cc2c(c3oc(C4(C)OC4C4OC4C)cc(=O)c13)C(=O)c1c(O)c(C3CC(C)(N(C)C)C(O)C(C)O3)cc(C3CC(N(C)C)C(O)C(C)O3)c1C2=O (stereo not shown) [hedamycin]
survivin expression and survivin promoter activity (survivin [4]): inhibits survivin expression and downregulates survivin promoter activity
cell death (cancer cells; 10 nM for 16-24 hours): do not show significant cell death
luciferase activity (human survivin promoter [2]; 10 nM hedamycin for 16-24 hours, A549, 2008, HCT116, PC-3 clones with pNeoHScyc4.08-luc (FIGS. 5-8)): significantly inhibited

C[C@]12CC[C@H]3[C@@H](CCC4=CC(=O)CC[C@@]43C)[C@@H]1CC[C@@H]2O [testosterone]
luciferase activity (survivin promoter activity) by in vivo imaging (human survivin promoter [5]): Transient induction of survivin promoter activity
luciferase activity (survivin promoter activity) by in vivo imaging (human survivin promoter [5]; listed as androgen): transient luciferase activity
